Assay results as given in patent US9034439B2, “Synthesis and applications of soluble pentacene precursors and related compounds” (Academia Sinica, priority 2008, dated 2015).
Converted amounts (≈) assume the structure as drawn. “Also recorded” adds a separate entry of the source. Read-outs that look alike come from different tables or passages of the source.

Tests used:
[1] = heating; earlier reports; cited from earlier work
[2] = Solubility in organic solvents; assay type: physicochemical; details: for solubility (comparison in words): organic solvents
[3] = Thermal fragmentation / decomposition (thermogravimetric analysis, heating); assay type: physicochemical; details: for thermal conversion of spin-cast film to pentacene: heating amorphous thin films cast from toluene
Description: FIG. 2 presents thermogravimetric analysis curves for compounds 1 (blue) and 2 (red) at 10° C./min heating rate, assessing the carbon monoxide (CO) expulsion reaction, in which the carbonyl bridge is released from the precursor for conversion to pentacene.
Melting points were taken on a Fargo MP-2D melting-point apparatus and were not corrected. UV spectra were recorded on a Hewlett-Packard 8453 spectrophotometer. Infrared spectra were measured on a Perkin-Elmer L118-F000 FT-IR spectrometer as either thin film or solid dispersion in KBr. Nuclear magnetic resonance spectra were recorded on Bruker AC300 and AV500 super-conducting FT NMR spectrometers with all chemical shifts reported in ppm from tetramethylsilane as an internal standard. Mass spectra were obtained on a Joel JMS 700 double focusing spectrometer. Elemental analyses were performed on a Perkin-Elmer 2400 elemental analyzer. Thermal gravimetric analyses were measured on a Perkin-Elmer Pyris 1 thermogravimetric analyzer. Differential scanning calorimetry was done on a Perkin-Elmer DCS-7 instrument. Column chromatography was carried out using 230-400 mesh silica gel.

[4] = Stability on storage / at ambient conditions; assay type: physicochemical
[5] = organic solvents; cited from earlier work
[6] = organic solvent or mixture, dichloromethane (DCM) and tetrahydrofuran (THF), read-out: solubility
[7] = toluene, solutions for spin-casting

O=C1[C@H]2c3cc4ccccc4cc3[C@H]1c1cc3ccccc3cc12 [Compound 1, reference compound]
temperature of CO extrusion to pentacene [1]: 150 °C | solubility [2, 6]: ~700 µg/mL (≈ 2280 µM) | temperature at which CO expulsion / decomposition starts ([3]; TGA, 10° C./min heating rate): 150 °C

O=C1[C@@H]2c3ccccc3[C@@H]1c1cc3cc4ccccc4cc3cc12 [Compound 2]
temperature of CO extrusion to pentacene [1]: 128 °C | stability (in words) [4]: stable at ambient temperature | solubility [2, 6]: ~700 µg/mL (≈ 2280 µM) | solubility (comparison in words) [2]: better than compound 1 | weight loss ([3]; thermogravimetric curve, corresponds to a CO unit): 10%

O=C1[C@@H]2C=C[C@@H]1c1cc3cc4cc5ccccc5cc4cc3cc12 [Compound 11]
stability (in words) [4]: relatively low

O=C1C2c3ccccc3[C@@H]1c1cc3c(cc12)[C@@H]1C(=O)[C@@H]3c2ccccc21 [Compound 12]
stability (in words) [4]: stable at low temperature for a long period of time; also recorded: can be kept at −10 °C for an extended period of time | solubility (comparison in words) [2]: higher solubility than either compound 1 or 2

O=C1C2C=CC1c1cc3cc4cc5c(cc4cc3cc12)C1C=CC5C1=O [Compound 13A]
stability (in words) [4]: decomposed readily at ambient conditions; also recorded: not stable enough to sustain at ambient conditions

O=C1C2C=CC1c1cc3cc4cc5c(cc4cc3cc12)C1C=CC5C1=O [Compound 13]
stability (in words) [4]: cannot be isolated at ambient temperature; also recorded: relatively low

O=C1C2C=CC1c1cc3c(cc12)[C@H]1C(=O)[C@H]3c2cc3c(cc21)C1C=C[C@H]3C1=O [Compound 14]
stability (in words) [4]: relatively low

C1=C[C@@H]2c3cc4cc5cc6c(cc5cc4cc3[C@@H]1[C@]21OCCO1)[C@H]1C=C[C@@H]6[C@]12OCCO2 [Compound 16]
fragmentation / dissociation temperature of ethylene ketal (CO2 and ethylene released) ([3]; TGA): about 225 °C

COC1(OC)C2(Cl)C(Cl)=C(Cl)C1(Cl)c1cc3cc4cc5c(cc4cc3cc12)C1(Cl)C(Cl)=C(Cl)C5(Cl)C1(OC)OC [Compound 23]
solubility [2, 7]: good solubility | decomposition temperature ([3]; anti isomer): 297 °C | thermal conversion of spin-cast film to pentacene [3]: did not yield either pentacene or 1,2,3,4,8,9,10,11-octachloropentacene | decomposition temperature ([3]; syn isomer): 271 °C

COC1(OC)C2C=CC1c1cc3cc4cc5c(cc4cc3cc12)C1C=CC5C1(OC)OC [Compound 25]
solubility [2, 7]: good solubility | decomposition temperature ([3]; anti isomer): 288 °C | thermal conversion of spin-cast film to pentacene [3]: did not yield either pentacene or 1,2,3,4,8,9,10,11-octachloropentacene | decomposition temperature ([3]; syn isomer): 252 °C

c1csc(-c2ccc3cc4cc(-c5cccs5)ccc4cc3c2)c1 [Compound 35]
solubility [5]: undesirably low solubility

C(=C\c1cccs1)/c1ccc2cc3cc(/C=C/c4cccs4)ccc3cc2c1 [Compound 36]
solubility [5]: undesirably low solubility

c1ccc(-c2ccc3cc4cc(-c5ccccc5)ccc4cc3c2)cc1 [Compound 37]
solubility [5]: undesirably low solubility

C(=C\c1ccc2cc3cc(/C=C/c4ccccc4)ccc3cc2c1)/c1ccccc1 [Compound 38]
solubility [5]: undesirably low solubility

c1ccc2cc3cc4cc5ccccc5cc4cc3cc2c1 [pentacene]
temperature up to which stable ([3]; pentacene produced from compound 2, TGA): 300 °C
